Assay results taken from patent US9632088B2, “Methods and compositions for gamma-secretase assay” (MEMORIAL SLOAN-KETTERING CANCER CENTER, priority 2010, dated 2017).

Tests used:
γ-secretase [1] = biological target: T1, γ-secretase (Homo sapiens, UniProt P49768); experiment: 1536-well format ALPHA-based γ-secretase assay, control validation; format: biochemical; details: low control: 250 nM Compound E, 1% DMSO, full 1536-well plate
T1 construct: endogenous in cells; host or cells: HEK293 cells transiently transfected with myc-tagged N1-ΔE (substrate only)
Procedure: Based on the 384-well assay format described above, to the assay was miniaturized to a 1536-well format for automated high-throughput drug screening. Concentrations of SM320, protein A conjugated acceptor beads and streptavidin conjugated donor beads were titrated to minimize reagent usage. […] The assay was validated by comparing the high and low control signals from full 1536-well plates. The high controls contained 1% final DMSO concentration (v/v), while the low controls contains 250 nM of Compound E also at 1% final DMSO concentration (v/v).

γ-secretase [2] = biological target: T1, γ-secretase; experiment: Cell-based Notch cleavage assay, western blot with SM320, HEK293 cells transfected with N1-ΔE; details: 1 μM inhibitor, 48 hours
Procedure: HEK293 cells were seeded in a 24-well plate and transfected with either truncated Notch1-ΔE construct (N1-ΔE) (gift from Dr. Raphael Kopan, Washington University School of Medicine, St. Louis, Mo.; (see Supplemental FIG. 1A of van Tetering et al., 2009, J. Biol. Chem., 284:31018-31027, for a diagram of N1-ΔE)) including cmyc (24), or empty pcDNA3.1 (−) (Invitrogen), using Fugene 6 transfection reagents (Roche). N1-ΔE includes the replete intracellular sequence, the transmembrane domain, and a truncated extracellular portion lacking LNR and the EGF repeat sequences (see Supplemental FIG. 1A of van Tetering et al., 2009, J. Biol. Chem., 284:31018-31027). […] The proteins were transferred to PVDF membrane (Millipore) using a semi-dry transfer emit (Bio-Rad) and analyzed by western blot with anti-myc antibody (prepared at Memorial Sloan-Kettering Cancer Center) and SM320 antibody.
HEK 293 cells were transiently transfected with truncated Notch1-ΔE construct including cmyc (N1-ΔE), a substrate of γ-secretase that is independent of ligand activation, as described in Experimental Methods. […] Cell lysates were analyzed by performing SDS-PAGE and immunoblotting the result with anti-myc and SM320 antibody (FIG. 6A). […] N1-ΔE was detected only in cells transfected with this construct (FIG. 6A, upper panel, lanes 1 and 2) but not in the mock transfected cells (FIG. 6A, upper panel, lane 3).

[3] = biological target: T2, M146L PS1 NTF (γ-secretase active site) (Homo sapiens, UniProt P49768, M146L); experiment: Photolabeling of PS1 NTF, N2a M146L PS1 membrane; format: binding, murine; details: probes 10 nM, 0.25% CHAPSO, normalized to JC8, excess L458 as competitor
T2 construct: total membrane
Procedure: (§1) Total cell membrane was pre-incubated in the presence of DMSO or 1 μM L458 in PIPES buffer containing 0.25% CHAPSO at 37° C. for 30 minutes. Then, photolabeling probes (JC8, L646 or GY4) (Li et al., 2000, Nature, 405:689-694, Chun et al., 2004, J Org. Chem., 69:7344-7347, Yang et al., 2009, Bioorg Med Chem. Lett., 19:922-925) at 10 nM were added and incubated for an additional 1 hour at 37° C. The reaction mixtures were irradiated at 350 nm for 45 minutes and solubilize with RIPA buffer. Biotinylated proteins in the soluble fraction were captured by Streptavidin resin (Pierce) overnight at 4° C. Bound proteins were eluted by boiling with SDS sample buffer and analyzed by western blotting with anti-PS1 NTF antibodies.
(§2) L646, GY4 and JC8, which photolabel the S2, S1, and S1′ subsites within the active site of PS1, respectively, were used for this study (FIG. 10b). Membranes isolated from N2a cells stably expressing wild-type (WT), M146L, or E280A PS1 were photolabeled with JC8, GY4 or L646 in the presence of 0.25% CHAPSO. […] After […] irradiation, biotinylated proteins were isolated with streptavidin beads and analyzed by western blotting with anti-PS1 NTF antibodies. […] To eliminate the effect of various amounts of γ-secretase existing in different cell lines, we normalized each probe with JC8 labeling in the same cell lines.

[4] = biological target: T3, E280A PS1 NTF (γ-secretase active site) (Homo sapiens, UniProt P49768, E280A); experiment: Photolabeling of PS1 NTF, N2a E280A PS1 membrane; format: binding, murine; details: probes 10 nM, 0.25% CHAPSO, normalized to JC8, excess L458 as competitor
T3 construct: total membrane
Procedure: as §1, §2

[5] = biological target: T4, WT PS1 NTF (γ-secretase active site) (Homo sapiens, UniProt P49768); experiment: Photolabeling of PS1 NTF, N2a wild-type PS1 membrane; format: binding, murine; details: probes 10 nM, 0.25% CHAPSO, normalized to JC8, excess L458 as competitor
T4 construct: total membrane
Procedure: as §1, §2

CC(NC(=O)Cc1cc(F)cc(F)c1)C(=O)NC1N=C(c2ccccc2)c2ccccc2N(C)C1=O (centres unmarked) [Compound E]
Average (ALPHA signal) (γ-secretase [1]): 319
detection of cleaved NICD band by SM320 (western blot) (γ-secretase [2]): not in the Compound E-treated cells

CC(C)C[C@H](NC(=O)[C@H](Cc1ccccc1)C[C@@H](O)[C@H](Cc1ccccc1)NC(=O)OC(C)(C)C)C(=O)N[C@@H](Cc1ccccc1)C(N)=O [L458]
Photolabeling of PS1 NTF (western blot) [3]: completely prevented labeling
Photolabeling of PS1 NTF (western blot) [4]: completely prevented labeling
Photolabeling of PS1 NTF (western blot) [5]: completely prevented labeling
